# Measured values reported in patent US12560591B2, “Methods of treatment with CD8 T cell-mediated immune therapy” (Providence Health & Services—Oregon, priority 2019, dated 2026).
# What was measured:
# [1] = system: tumor infiltrating immune cells; assay: FACS analysis of tumor-infiltrating immune cells after LY treatment; assay type: in vivo, mouse
# ALK4 = target: T1, ALK4 (Homo sapiens, UniProt P36896); details: reported in Lahn et al., Drug Des. Devel. Ther. 2015; cited from earlier work
# T1 sequence (P36896 24-505): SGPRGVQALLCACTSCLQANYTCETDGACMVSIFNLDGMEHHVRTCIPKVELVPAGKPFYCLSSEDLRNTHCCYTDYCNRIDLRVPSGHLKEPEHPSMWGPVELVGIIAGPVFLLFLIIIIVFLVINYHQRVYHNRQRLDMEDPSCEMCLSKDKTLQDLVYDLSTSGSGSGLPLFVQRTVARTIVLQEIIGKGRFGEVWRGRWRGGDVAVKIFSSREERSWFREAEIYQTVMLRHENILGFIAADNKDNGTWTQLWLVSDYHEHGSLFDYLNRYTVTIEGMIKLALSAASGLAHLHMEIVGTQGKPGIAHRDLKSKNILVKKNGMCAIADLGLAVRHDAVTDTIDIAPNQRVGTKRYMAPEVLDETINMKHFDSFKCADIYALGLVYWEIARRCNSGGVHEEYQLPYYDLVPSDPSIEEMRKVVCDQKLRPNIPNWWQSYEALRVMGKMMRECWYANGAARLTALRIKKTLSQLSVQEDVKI
# MC38 tumors = assay: MC38 tumor model in ALK5^ΔCD8 mice, survival and tumor growth; assay type: in vivo, mouse; details: addition of LY2157299 in ALK5^ΔCD8 mice with MC38 tumors, FIGS. 5B and 5C
# Method: FIG. 5A is a schematic showing the treatment strategy in the MC38 tumor model. C57BL/6 Wild-type (n=6-9/group) and ALK5^ΔCD8 (n=4-10/group) mice were implanted subcutaneously with MC38 tumor cells followed four days later by injection of some groups with anti-CD8a mAb to specifically deplete CD8^+ T cells. In other groups, mice also received LY2157299 via oral gavage twice daily (150 mg/kg) for seven days. Survival of mice was monitored until day 90 (FIG. 5B). […] The number of tumors cured over the total number of tumor-bearing mice is shown in the top right of each graph. Data from a representative experiment is shown reflective of two independent experiments total. ***=p<0.001.
# Animal studies and cell culture: C57BL/6, BALB/c, CD8Cre, Lyz2Cre, and Foxp3-eGFP-CreERT2 mice were purchased from the Jackson Laboratories (Bar Harbor, Maine). ALK5flox/flox mice were a generous gift from Andrew Weinberg (Providence Cancer Center). All transgenic mice were on C57BL/6 background. […] Tumors were measured 3×/week until they reached the survival end-point of 144 mm^2. […] Following single cell preparation, cells were washed and resuspended in FACS buffer (1×PBS, 1% BSA, 2 mM EDTA) and counted prior to FACS staining using a Guava EasyCyte cytometer (Millipore). […]
# Whether the improved survival and radiosensitivity observed in ALK5^ΔCD8 mice was dependent on CD8^+ T cells was next evaluated. […]
# CXCR3^+CD8^+ T cells = assay: FACS analysis of CXCR3^+CD8^+ T cells in CT26 tumor bearing mice; assay type: in vivo, mouse; details: preclinical modeling, 7 days treatment, FIG. 10E
# Method: FIGS. 10A-10E show CD8^+ T cell proliferation is suppressed by the tumor microenvironment, but TGF13 inhibition can increase tumor trafficking. […] Ki67^+CD8^+ T cells was determined by FACS analysis of lymph nodes and MC38 tumors of WT and ALK5^ΔCD8 mice (FIG. 10B).
# Flow Cytometry: For ex vivo cytokine analysis, cells were first treated with a 1× cell activation cocktail of PMA/ionomycin/Brefeldin A (Biolegend) for 5 hours in complete RPMI media. One million cells from single cell suspensions were stained with anti-CD16/CD32 Fc block (1:200, BD Biosciences) and fixable viability 700 dye (1:10,000, BD Biosciences) in 1×PBS for 15 min. at 37° C. prior to surface and intracellular staining with primary antibodies. Surface staining commenced in 200 μl FACS buffer supplemented with a 1:4 dilution of Brilliant Violet stain buffer (BD Biosciences) and fluorescently conjugated antibodies (Table 1) for 30 min at 4° C. in the dark; all are mouse reactive antibodies unless otherwise indicated. Following surface staining cells were washed and fixed in either 2% PFA or Fix/Perm buffer (eBioscience) for 20 min at 4° C. for intracellular stain. Fix/perm buffer was washed with 1× perm wash buffer (eBioscience) and intracellular proteins were stained with fluorescently conjugated ICS antibodies in perm wash buffer for 30 min. at 4° C. in the dark. […]
# [2] = LY-treated vs vehicle animals, day 14, FIG. 8E
compound,measurement,setting,value
Cc1cccc(-c2nn3c(c2-c2ccnc4ccc(C(N)=O)cc24)CCC3)n1 [LY2157299],tumor-infiltrating effector population (tSNE of flow cytometric data),"[1]; LY versus vehicle control treated animals, data not shown",enrichment of the tumor-infiltrating effector population
same,CD8^+ T cells infiltrating tumors,[1]; [2],more CD8^+ T cells
same,macrophages and Tregs infiltrating tumors,[1]; [2],fewer macrophages and Tregs
same,percentage of CD8^+ T cells expressing EOMES and Tbet,"[1]; spleens, lymph nodes and CT26 tumors of LY-treated mice, FIG. 8F",increase
same,Kd for ALK4 compared with ALK5,ALK4,lower Kd for ALK4 than ALK5
same,survival or tumor growth kinetics,MC38 tumors,no improvement in survival or tumor growth kinetics
same,CXCR3^+CD8^+ T cells following treatment,CXCR3^+CD8^+ T cells,increase in CXCR3^+CD8^+ T cells
